The values below come from ChEMBL document CHEMBL1909046, “DrugMatrix in vitro pharmacology data”.

Assay [1] addresses T1, Alpha-1D adrenergic receptor (Homo sapiens, UniProt P25100).
T1 sequence (P25100 whole entry): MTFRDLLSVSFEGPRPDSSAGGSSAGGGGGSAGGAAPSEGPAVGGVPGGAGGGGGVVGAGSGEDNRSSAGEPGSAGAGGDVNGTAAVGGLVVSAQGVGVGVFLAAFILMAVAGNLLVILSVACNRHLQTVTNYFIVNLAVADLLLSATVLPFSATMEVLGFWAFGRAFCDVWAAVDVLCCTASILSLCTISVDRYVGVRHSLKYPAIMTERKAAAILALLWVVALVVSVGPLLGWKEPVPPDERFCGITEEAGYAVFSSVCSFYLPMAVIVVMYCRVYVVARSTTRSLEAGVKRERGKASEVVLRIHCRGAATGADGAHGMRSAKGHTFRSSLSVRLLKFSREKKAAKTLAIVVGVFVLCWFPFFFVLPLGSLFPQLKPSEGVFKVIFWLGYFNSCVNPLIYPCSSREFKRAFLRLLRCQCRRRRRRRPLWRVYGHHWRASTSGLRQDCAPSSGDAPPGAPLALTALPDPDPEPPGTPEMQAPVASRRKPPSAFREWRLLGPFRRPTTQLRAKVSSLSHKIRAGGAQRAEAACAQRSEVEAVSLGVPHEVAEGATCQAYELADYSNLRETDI
In kind it is cell membranes, HEK293, Membrane. The note with it: hek293.

In assay [2] the target is Epidermal growth factor receptor (Homo sapiens, UniProt P00533). The experiment in a line: DRUGMATRIX: Protein Tyrosine Kinase, EGF Receptor enzyme inhibition (substrate: Poly(Glu:Tyr)). In kind it is cell-based, Insect cells. Conditions: Not Active = under 50% inhibition at 10 µM.
For the next assay, the target named is Insulin receptor (Rattus norvegicus, UniProt P15127). The assay is classed as cell membranes, Wistar, Liver, Membrane. Further: in other assays of this panel Not Active means under 50% inhibition at 10 µM.
Assay [3] in a line: DRUGMATRIX: Glutamate, AMPA radioligand binding (ligand: [3H] AMPA). In kind it is cell membranes, Rattus norvegicus, Wistar, Cerebral cortex, Membrane. Conditions: Not Active = under 50% inhibition at 10 µM.
Assay [4] concerns the target Delta-type opioid receptor (Homo sapiens, UniProt P41143). In kind it is cell membranes, HEK293, Membrane. The note with it: hek293. Further: in other assays of this panel Not Active means under 50% inhibition at 10 µM.
Assay [5] can be described thus: DRUGMATRIX: Imidazoline I2, Central radioligand binding (ligand: [3H] Idazoxan). In kind it is cell membranes, Rattus norvegicus, Wistar, Cerebral cortex, Membrane. The note with it: Not Active = under 50% inhibition at 10 µM.
Assay [6] concerns the target T2, Cholecystokinin receptor type A (Homo sapiens, UniProt P32238). Further: in other assays of this panel Not Active means under 50% inhibition at 10 µM.
T2 sequence (P32238 whole entry): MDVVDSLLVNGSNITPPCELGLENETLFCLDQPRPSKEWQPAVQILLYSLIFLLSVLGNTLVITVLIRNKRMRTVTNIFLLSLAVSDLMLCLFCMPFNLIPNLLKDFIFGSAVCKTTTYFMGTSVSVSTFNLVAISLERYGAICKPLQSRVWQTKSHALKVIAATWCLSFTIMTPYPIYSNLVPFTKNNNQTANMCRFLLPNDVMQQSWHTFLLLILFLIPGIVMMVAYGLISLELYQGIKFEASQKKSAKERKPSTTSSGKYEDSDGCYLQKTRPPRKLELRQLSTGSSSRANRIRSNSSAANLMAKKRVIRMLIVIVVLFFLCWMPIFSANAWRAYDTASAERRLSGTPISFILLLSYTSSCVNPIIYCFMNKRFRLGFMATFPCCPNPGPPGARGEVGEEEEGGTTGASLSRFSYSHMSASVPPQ
In kind it is cell membranes, Membrane. The note with it: 1321-n1.

Sequence of Delta-type opioid receptor (P41143 whole entry): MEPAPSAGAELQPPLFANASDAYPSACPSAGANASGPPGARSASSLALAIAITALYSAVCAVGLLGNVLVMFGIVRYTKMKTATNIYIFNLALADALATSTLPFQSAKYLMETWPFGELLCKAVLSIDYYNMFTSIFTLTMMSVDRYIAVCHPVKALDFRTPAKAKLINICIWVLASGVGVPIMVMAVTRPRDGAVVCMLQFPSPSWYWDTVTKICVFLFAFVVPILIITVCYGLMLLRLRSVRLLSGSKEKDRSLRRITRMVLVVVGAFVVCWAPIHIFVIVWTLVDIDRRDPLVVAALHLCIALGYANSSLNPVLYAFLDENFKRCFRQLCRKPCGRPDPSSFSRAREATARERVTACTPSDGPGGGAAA
Sequence of Insulin receptor (P15127 27-759 limits assumed): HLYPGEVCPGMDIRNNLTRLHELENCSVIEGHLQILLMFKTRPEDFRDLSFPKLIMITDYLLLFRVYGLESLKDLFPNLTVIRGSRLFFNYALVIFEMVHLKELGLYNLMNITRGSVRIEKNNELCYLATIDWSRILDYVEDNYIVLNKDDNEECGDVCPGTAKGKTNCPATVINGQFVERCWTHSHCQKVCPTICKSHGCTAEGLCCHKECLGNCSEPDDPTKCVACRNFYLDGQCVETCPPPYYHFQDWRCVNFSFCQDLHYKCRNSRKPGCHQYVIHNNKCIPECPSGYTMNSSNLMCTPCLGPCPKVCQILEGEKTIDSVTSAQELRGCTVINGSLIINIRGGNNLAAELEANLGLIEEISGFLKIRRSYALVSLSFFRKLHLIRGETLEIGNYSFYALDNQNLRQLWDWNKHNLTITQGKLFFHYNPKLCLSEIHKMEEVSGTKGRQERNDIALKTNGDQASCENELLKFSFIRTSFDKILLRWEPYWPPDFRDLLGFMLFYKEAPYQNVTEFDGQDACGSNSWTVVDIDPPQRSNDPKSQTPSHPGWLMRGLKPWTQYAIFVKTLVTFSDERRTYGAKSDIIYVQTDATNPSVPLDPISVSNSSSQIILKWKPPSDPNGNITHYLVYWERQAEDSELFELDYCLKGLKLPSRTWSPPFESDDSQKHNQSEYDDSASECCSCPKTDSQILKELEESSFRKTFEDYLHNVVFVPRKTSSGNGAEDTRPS
Sequence of Insulin receptor (P15127 764-1383 limits assumed): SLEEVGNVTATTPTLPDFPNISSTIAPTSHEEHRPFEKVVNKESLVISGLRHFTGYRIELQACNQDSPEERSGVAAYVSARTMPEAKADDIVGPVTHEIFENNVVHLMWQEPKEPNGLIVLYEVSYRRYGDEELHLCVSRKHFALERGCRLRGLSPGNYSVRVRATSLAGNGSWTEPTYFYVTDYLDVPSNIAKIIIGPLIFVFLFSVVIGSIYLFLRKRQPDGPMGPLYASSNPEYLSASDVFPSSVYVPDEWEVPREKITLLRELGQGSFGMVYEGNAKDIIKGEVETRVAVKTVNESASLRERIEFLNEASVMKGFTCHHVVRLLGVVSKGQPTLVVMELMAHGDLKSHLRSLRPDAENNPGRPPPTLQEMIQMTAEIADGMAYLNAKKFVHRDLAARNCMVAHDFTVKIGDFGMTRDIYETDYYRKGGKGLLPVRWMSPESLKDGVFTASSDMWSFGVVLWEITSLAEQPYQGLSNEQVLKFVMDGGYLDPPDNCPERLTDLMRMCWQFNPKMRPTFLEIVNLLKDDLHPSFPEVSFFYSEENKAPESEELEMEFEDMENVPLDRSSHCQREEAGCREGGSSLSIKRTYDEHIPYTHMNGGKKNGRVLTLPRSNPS

In general, IC50 refers to the point on the concentration scale where inhibition reaches its midpoint. Take `Cc1cnc(NC(=O)C2=C(O)c3ccccc3S(=O)(=O)N2C)s1` [MELOXICAM]: the IC50 result (in assay [1]; in assay [2] (insect cells); at Insulin receptor; in assay [3]; in assay [4]; in assay [5]) was “Not Active” each time. The IC50 result in assay [6] was “Not Active”. The Ki result in assay [3] and in assay [5] was “Not Active” in each case.

As to `CC[C@H](C)[C@@H](CO[C@@H](Cc1ccccc1)C(=O)N[C@@H](CCS(C)(=O)=O)C(=O)OC(C)C)NC[C@@H](N)CS`, the IC50 result in assay [1] is “Not Active”; in assay [2] (read-out: IC50), 3.22 µM; against Insulin receptor, “Not Active”; in assay [3], “Not Active”; in assay [4], “Not Active”; in assay [5] it was “Not Active”. In addition, the IC50 entry in assay [6] is reported as “Not Active”. The Ki result in assay [3] and in assay [5] was “Not Active” throughout.

As to `C=CCc1ccc2c(c1)OCO2` [SAFROLE], the IC50 result (in assay [1]; in assay [2] (insect cells); at Insulin receptor; in assay [3]; in assay [4]; in assay [5]) was “Not Active” throughout. Besides, the IC50 entry in assay [6] is recorded as “Not Active”. Further, the Ki result in assay [3] and in assay [5] was “Not Active” each time.

On to `O=[As][O-].[Na+]` [SODIUM ARSENITE], for which the IC50 result (in assay [1]; in assay [2] (insect cells); at Insulin receptor; in assay [3]; in assay [4]; in assay [5]) was “Not Active” throughout. For the same compound, in assay [6], the IC50 result is reported as “Not Active”. The Ki entry in assay [3] and in assay [5] was “Not Active” throughout.

On to `Cc1cn([C@H]2C=C[C@@H](CO)O2)c(=O)[nH]c1=O` [STAVUDINE], for which the IC50 entry (in assay [1]; in assay [2] (insect cells); against Insulin receptor; in assay [3]; in assay [4]; in assay [5]) was “Not Active” each time. In addition, in assay [6], the IC50 result was “Not Active”. Besides, the Ki entry in assay [3] and in assay [5] was “Not Active” in each case.

As for `CC[C@H](C)C(=O)O[C@H]1CCC=C2C=C[C@H](C)[C@H](CC[C@@H]3C[C@@H](O)CC(=O)O3)[C@H]21` [MEVASTATIN], the IC50 result (in assay [1]; in assay [2] (insect cells); at Insulin receptor; in assay [3]; in assay [4]; in assay [5]) was “Not Active” throughout. Further, in assay [6], the IC50 entry is “Not Active”. Besides, the Ki result in assay [3] and in assay [5] was “Not Active” each time.

Take `O=C(OC[C@H]1O[C@@H](OC(=O)c2cc(O)c(O)c(OC(=O)c3cc(O)c(O)c(O)c3)c2)[C@H](OC(=O)c2cc(O)c(O)c(OC(=O)c3cc(O)c(O)c(O)c3)c2)[C@@H](OC(=O)c2cc(O)c(O)c(OC(=O)c3cc(O)c(O)c(O)c3)c2)[C@@H]1OC(=O)c1cc(O)c(O)c(OC(=O)c2cc(O)c(O)c(O)c2)c1)c1cc(O)c(O)c(OC(=O)c2cc(O)c(O)c(O)c2)c1` [TANNIC ACID]: the IC50 result (in assay [1]; in assay [2] (insect cells); at Insulin receptor; in assay [3]; in assay [4]; in assay [5]) was “Not Active” in each case. The IC50 result in assay [6] is reported as “Not Active”. Besides, the Ki entry in assay [3] and in assay [5] was “Not Active” each time.

LEAD(IV) ACETATE: the IC50 result (in assay [1]; in assay [2] (insect cells); against Insulin receptor; in assay [3]; in assay [4]; in assay [5]) was “Not Active” each time. Also, in assay [6], the IC50 entry is on record as “Not Active”. Moreover, the Ki result (in assay [1]; in assay [2] (insect cells); on Insulin receptor; in assay [3]; in assay [4]; in assay [5]) was “Not Active” each time. Also, in assay [6], the Ki entry is “Not Active”.

Regarding `CC#C[C@]1(O)CC[C@H]2[C@@H]3CCC4=CC(=O)CCC4=C3[C@@H](c3ccc(N(C)C)cc3)C[C@@]21C` [MIFEPRISTONE], the IC50 result (in assay [1]; in assay [2] (insect cells); on Insulin receptor; in assay [3]; in assay [4]; in assay [5]) was “Not Active” in each case. Moreover, the half-inhibitory concentration (IC50) result in assay [6] is “Not Active”. Also, the Ki result in assay [3] and in assay [5] was “Not Active” throughout.

Consider `Cc1[nH]c(=O)c(C#N)cc1-c1ccncc1` [MILRINONE], for which the IC50 result (in assay [1]; in assay [2] (insect cells); on Insulin receptor; in assay [3]; in assay [4]; in assay [5]) was “Not Active” in each case. Also, the IC50 result in assay [6] is “Not Active”. The Ki entry in assay [3] and in assay [5] was “Not Active” each time.

In the case of `CCN(CC)N=O` [N-NITROSODIETHYLAMINE], the IC50 result (in assay [1]; in assay [2] (insect cells); against Insulin receptor; in assay [3]; in assay [4]; in assay [5]) was “Not Active” in each case. For the same compound, the IC50 result in assay [6] is reported as “Not Active”. The Ki entry in assay [3] and in assay [5] was “Not Active” throughout.

Consider `Cc1ccc(S(=O)(=O)NC(=O)NN2CCCCCC2)cc1` [TOLAZAMIDE], for which the IC50 entry (in assay [1]; in assay [2] (insect cells); against Insulin receptor; in assay [3]; in assay [4]; in assay [5]) was “Not Active” each time. The IC50 entry in assay [6] was “Not Active”. The Ki result in assay [3] and in assay [5] was “Not Active” in each case.

Consider `CC(O)C(=O)O` (centres undefined) [LACTIC ACID], for which the IC50 result (in assay [1]; in assay [2] (insect cells); on Insulin receptor; in assay [3]; in assay [4]; in assay [5]) was “Not Active” in each case. Also, the IC50 entry in assay [6] was “Not Active”. The Ki entry in assay [3] and in assay [5] was “Not Active” throughout.

With `CS(=O)(=O)c1ccc(C2=C(c3ccccc3)C(=O)OC2)cc1` [ROFECOXIB], the IC50 entry (in assay [1]; in assay [2] (insect cells); against Insulin receptor; in assay [3]; in assay [4]; in assay [5]) was “Not Active” each time. Further, the IC50 entry in assay [6] is recorded as “Not Active”. The Ki result in assay [3] and in assay [5] was “Not Active” throughout.

As to `CCOC(=O)C1=C(C)NC(C)=C(C(=O)OCC)C1c1ccccc1/C=C/C(=O)OC(C)(C)C` [LACIDIPINE], the IC50 entry (in assay [1]; in assay [2] (insect cells); at Insulin receptor; in assay [3]; in assay [4]; in assay [5]) was “Not Active” throughout. Moreover, in assay [6], the IC50 result is reported as “Not Active”. In addition, the Ki result in assay [3] and in assay [5] was “Not Active” each time.

Regarding `CC(N)C12CC3CC(CC(C3)C1)C2` (centres undefined) [RIMANTADINE], the IC50 result (in assay [1]; in assay [2] (insect cells); on Insulin receptor; in assay [3]; in assay [4]; in assay [5]) was “Not Active” in each case. For the same compound, the IC50 result in assay [6] is recorded as “Not Active”. Moreover, the Ki result in assay [3] and in assay [5] was “Not Active” throughout.
